According to US9499553B2 (CHUGAI SEIYAKU KABUSHIKI KAISHA, priority 2013, dated 2016):

target: T1, human NaPi-IIb (Homo sapiens, UniProt O95436); assay: Inhibitory effect on 33PO4 uptake into human NaPi-IIb-expressing CHO cells; type: cell-based; conditions: read-out: IC50
T1 construct: expressed in transfected cells
T1 sequence (O95436 1-690): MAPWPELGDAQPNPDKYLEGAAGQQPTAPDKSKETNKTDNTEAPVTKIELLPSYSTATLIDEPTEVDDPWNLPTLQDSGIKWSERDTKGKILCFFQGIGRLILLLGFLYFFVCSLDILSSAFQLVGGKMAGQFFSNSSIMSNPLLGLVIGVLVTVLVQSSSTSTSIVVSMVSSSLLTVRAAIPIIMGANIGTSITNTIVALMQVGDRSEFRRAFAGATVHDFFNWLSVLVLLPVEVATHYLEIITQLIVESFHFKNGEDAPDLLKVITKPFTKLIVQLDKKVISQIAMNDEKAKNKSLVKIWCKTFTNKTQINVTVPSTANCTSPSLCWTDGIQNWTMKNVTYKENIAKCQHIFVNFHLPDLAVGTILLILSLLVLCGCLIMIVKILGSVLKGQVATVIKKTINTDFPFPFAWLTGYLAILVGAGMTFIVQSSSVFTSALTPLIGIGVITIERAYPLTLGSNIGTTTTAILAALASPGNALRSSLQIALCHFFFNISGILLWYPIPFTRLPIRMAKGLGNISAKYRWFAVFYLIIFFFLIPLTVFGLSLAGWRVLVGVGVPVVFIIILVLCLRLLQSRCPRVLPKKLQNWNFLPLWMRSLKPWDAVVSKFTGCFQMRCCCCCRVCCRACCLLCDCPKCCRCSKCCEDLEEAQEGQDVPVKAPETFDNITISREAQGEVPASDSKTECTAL
Experimental: Test Example 2: Inhibitory Effect on PO4 Uptake into Human NaPi-IIb-Expressing Cell CHO cells were transfected with human NaPi-IIb expression plasmids, and a stably human NaPi-IIb-expressing cell line was obtained using G418. The human NaPi-IIb-expressing cells were inoculated to a 96-well plate and incubated overnight in a CO2 incubator. […] After a given time, a 1/20 volume of buffer A containing ^33PO4 was added thereto and reacted at room temperature. After washing with ice-cold buffer A, a liquid scintillator was added to each reaction mixture, and the amount of ^33PO4 uptake was measured using TopCount.

Point of comparison: Cc1c(Cl)ncnc1-c1cc(C(F)(F)F)ccc1NC(=O)C1=C(O)[C@@]2(C)CCCN2N(Cc2cccc(F)c2F)C1=O [Example 69], IC50 8.9 µM. Against it:
- C[C@]12CCCN1N(Cc1cccc(F)c1F)C(=O)C(C(=O)Nc1ccc(C(F)(F)F)cc1-c1ncnc(C#N)c1Cl)=C2O [Example 23] — within 1.5-fold, 6.9 µM
- Cc1c(C#N)ncnc1-c1cc(C(F)(F)F)ccc1NC(=O)C1=C(O)[C@@]2(C)CCCN2N(Cc2cccc(F)c2F)C1=O [Example 24] — within 1.5-fold, 8.1 µM
- COc1c(C#N)ncnc1-c1cc(C(F)(F)F)ccc1NC(=O)C1=C(O)[C@@]2(C)CCCN2N(Cc2cccc(F)c2F)C1=O [Example 25] — within 1.5-fold, 10.1 µM
- CCCCCN1C(=O)C(C(=O)Nc2ccc(C(F)(F)F)cc2-c2ccc(C(F)(F)F)nc2)=C(O)[C@@]2(C)CCCN12 [Example 26] — 4-fold lower, 2.2 µM
- C[C@]12CCCN1N(Cc1cccc([N+](=O)[O-])c1)C(=O)C(C(=O)Nc1ccc(Br)c(F)c1)=C2O [Example 27] — within 1.5-fold, 9 µM
- C[C@]12CCCN1N(Cc1cccc(F)c1F)C(=O)C(C(=O)Nc1ccc(Br)c(F)c1)=C2O [Example 28] — 2.2-fold lower, 4.1 µM
- C[C@]12CCCN1N(Cc1cccc(F)c1F)C(=O)C(C(=O)Nc1cc(F)c(Br)c(F)c1)=C2O [Example 29] — 4.5-fold lower, 2 µM
- CC1(C)CC[C@]2(C)C(O)=C(C(=O)Nc3cc(C(F)(F)F)ccc3-c3ccc(C(F)(F)F)nc3)C(=O)N(Cc3cccc(F)c3F)N12 [Example 63] — within 1.5-fold, 8.7 µM
- C[C@]12CCCN1N(Cc1cccc(F)c1F)C(=O)C(C(=O)Nc1ccc(Br)cc1-c1cc(C(F)(F)F)ncn1)=C2O [Example 64] — within 1.5-fold, 6.5 µM
- COC(=O)c1cccc(-c2cc(C(F)(F)F)ccc2NC(=O)C2=C(O)[C@@]3(C)CCCN3N(Cc3cccc(F)c3F)C2=O)c1OC [Example 65] — 1.8-fold higher, 16.2 µM
- CCOc1cccc(-c2cc(C(F)(F)F)ccc2NC(=O)C2=C(O)[C@@]3(C)CCCN3N(Cc3cccc(F)c3F)C2=O)c1OC [Example 66] — 1.9-fold higher, 17.3 µM
- C[C@]12CCCN1N(Cc1cccc(F)c1F)C(=O)C(C(=O)Nc1ccc(C(F)(F)F)cc1-c1cnc(Cl)nc1)=C2O [Example 67] — 4.5-fold lower, 2 µM
- C[C@]12CCCN1N(Cc1cccc(F)c1F)C(=O)C(C(=O)Nc1ccc(C(F)(F)F)cc1-c1cnc(Cl)c(C#N)c1)=C2O [Example 68, (4aR)—N-[2-(6-Chloro-5-cyanopyridin-3-yl)-4-(trifluoromethyl)phenyl]-1-[(2,3-difluorophenyl)methyl]-4-hydroxy-4a-methyl-2-oxo-6,7-dihydro-5H-pyrrolo[1,2-b]pyridazine-3-carboxamide] — 3.4-fold lower, 2.6 µM
- C[C@]12CCCN1N(Cc1cccc(F)c1F)C(=O)C(C(=O)Nc1ccc(C(F)(F)F)cc1-c1ncnc(Cl)c1Cl)=C2O [Example 70] — within 1.5-fold, 8.4 µM
- CN(C)S(=O)(=O)c1ccc(-c2cc(C(F)(F)F)ccc2NC(=O)C2=C(O)[C@@]3(C)CCCN3N(Cc3cccc(F)c3F)C2=O)s1 [Example 71] — within 1.5-fold, 7.8 µM
- COc1ncc(-c2cc(C(F)(F)F)ccc2NC(=O)C2=C(O)[C@@]3(C)CCCN3N(Cc3cccc(F)c3F)C2=O)c(OC)n1 [Example 72] — within 1.5-fold, 8.3 µM
- C[C@]12CCCN1N(Cc1cccc(F)c1F)C(=O)C(C(=O)Nc1ccc(C(F)(F)F)cc1-c1cnc(Br)cn1)=C2O [Example 73] — 3.9-fold lower, 2.3 µM
- C[C@]12CCCN1N(Cc1cccc(F)c1F)C(=O)C(C(=O)Nc1ccc(C(F)(F)F)cc1-c1cnc(Cl)cn1)=C2O [Example 74] — 2.2-fold lower, 4.1 µM
- C[C@]12CCCN1N(Cc1cccc(F)c1F)C(=O)C(C(=O)Nc1ccc(Cl)cc1F)=C2O [Example 76] — within 1.5-fold, 6.6 µM
- C[C@]12CCCN1N(Cc1cccc(F)c1F)C(=O)C(C(=O)Nc1ccc(Br)cc1)=C2O [Example 77] — the same, 8.9 µM
- C[C@]12CCCN1N(Cc1cccc(F)c1F)C(=O)C(C(=O)Nc1ccc(Br)cn1)=C2O [Example 78] — 1.7-fold lower, 5.2 µM
- C[C@]12CCCN1N(Cc1cccc(F)c1F)C(=O)C(C(=O)Nc1ccc(Cl)cn1)=C2O [Example 79] — within 1.5-fold, 6.7 µM
- COc1cc(C)c(-c2cc(C(F)(F)F)ccc2NC(=O)C2=C(O)[C@@]3(C)CCCN3N(Cc3cccc(F)c3F)C2=O)cn1 [Example 80] — within 1.5-fold, 12.5 µM
- COc1cncc(-c2cc(C(F)(F)F)ccc2NC(=O)C2=C(O)[C@@]3(C)CCCN3N(Cc3cccc(F)c3F)C2=O)c1 [Example 81] — 2-fold higher, 17.5 µM
- C[C@]12CCCN1N(Cc1cccc(F)c1F)C(=O)C(C(=O)Nc1ccc(C(F)(F)F)cc1-c1cncc(C#N)c1)=C2O [Example 82] — within 1.5-fold, 11.1 µM
- C[C@]12CCCN1N(Cc1cccc(F)c1F)C(=O)C(C(=O)Nc1ccc(C(F)(F)F)cc1-c1cnc3ccccc3c1)=C2O [Example 83] — within 1.5-fold, 10.6 µM
- C[C@]12CCCN1N(Cc1cccc(F)c1F)C(=O)C(C(=O)Nc1ccc(C(F)(F)F)cc1-c1cc(Cl)cnc1Cl)=C2O [Example 84] — within 1.5-fold, 7.9 µM
- C[C@]12CCCN1N(Cc1cccc(F)c1F)C(=O)C(C(=O)Nc1ccc(C(F)(F)F)cc1-c1ccc(C(F)(F)F)nc1Br)=C2O [Example 85] — within 1.5-fold, 6.2 µM
- C[C@]12CCCN1N(Cc1cccc(F)c1F)C(=O)C(C(=O)Nc1ccc(Cl)cc1-c1ccc(C(F)(F)F)nc1)=C2O [Example 86] — 1.7-fold lower, 5.3 µM
- CN(C)S(=O)(=O)c1ccc(-c2nc(C(F)(F)F)ccc2NC(=O)C2=C(O)[C@@]3(C)CCCN3N(Cc3cccc(F)c3F)C2=O)cc1 [Example 87] — within 1.5-fold, 8.3 µM
- C[C@]12CCCN1N(Cc1cccc(F)c1F)C(=O)C(C(=O)Nc1ccc(C(F)(F)F)cc1)=C2O [Example 89] — 1.9-fold lower, 4.8 µM
- C[C@]12CCCN1N(Cc1cccc(F)c1F)C(=O)C(C(=O)Nc1ccc(C(F)(F)F)cc1-c1ccc(C(F)(F)F)nc1)=C2O [Example 90] — 3.7-fold lower, 2.4 µM
- C[C@]12CCCN1N(Cc1cccc(F)c1F)C(=O)C(C(=O)Nc1ccc(C(F)(F)F)cc1-c1cncc(C(F)(F)F)c1)=C2O [Example 91] — 1.8-fold higher, 15.7 µM
- COCCOc1cc(NC(=O)C2=C(O)[C@@]3(C)CCCN3N(Cc3cccc(F)c3F)C2=O)c(-c2cccc(OC)c2OC)cc1C(F)(F)F [Example 92] — 2.3-fold higher, 20.2 µM
- COc1cccc(-c2cc(C(F)(F)F)ccc2NC(=O)C2=C(O)[C@@]3(C)CCCN3N(Cc3cccc(F)c3F)C2=O)n1 [Example 93] — 2-fold higher, 17.4 µM
- C[C@]12CCCN1N(Cc1cccc(F)c1F)C(=O)C(C(=O)Nc1ccc(C(F)(F)F)cc1-c1cnc(C#N)c([N+](=O)[O-])c1)=C2O [Example 99, (4aR)—N-[2-(6-Cyano-5-nitropyridin-3-yl)-4-(trifluoromethyl)phenyl]-1-[(2,3-difluorophenyl)methyl]-4-hydroxy-4a-methyl-2-oxo-6,7-dihydro-5H-pyrrolo[1,2-b]pyridazine-3-carboxamide] — 2.1-fold lower, 4.3 µM
- C[C@]12CCCN1N(Cc1cccc(F)c1F)C(=O)C(C(=O)Nc1ccc(C(F)(F)F)cc1-c1cc(C#N)ncn1)=C2O [Example 100] — within 1.5-fold, 6.7 µM
- Cc1cc(-c2cc(C(F)(F)F)ccc2NC(=O)C2=C(O)[C@@]3(C)CCCN3N(Cc3cccc(F)c3F)C2=O)cnc1C#N [Example 101] — within 1.5-fold, 9.4 µM
- C[C@]12CCCN1N(Cc1ccc(OCCN3CCOCC3)c(F)c1F)C(=O)C(C(=O)Nc1ccc(Cl)cc1-c1ccc(C(F)(F)F)nc1)=C2O [Example 102] — within 1.5-fold, 10.9 µM
- CSc1ccc(-c2cc(C(F)(F)F)ccc2NC(=O)C2=C(O)[C@@]3(C)CCCN3N(Cc3ccc(OCCN4CCOCC4)c(F)c3F)C2=O)cn1 [Example 103] — within 1.5-fold, 11 µM
- CSc1ncc(-c2cc(C(F)(F)F)ccc2NC(=O)C2=C(O)[C@@]3(C)CCCN3N(Cc3ccc(OCCN4CCOCC4)c(F)c3F)C2=O)cn1 [Example 104] — within 1.5-fold, 10.8 µM
